{"source": "ChEMBL document CHEMBL4387741", "about": "“Optimization of novel reversible Bruton's tyrosine kinase inhibitors identified using Tethering-fragment-based screens” (Bioorg Med Chem, 2019)", "key": {"[1]": {"biological_target": "Hormonally up-regulated neu tumor-associated kinase (Homo sapiens) (UniProt P57058)", "sequence (P57058 whole entry, the tested form may be a part)": "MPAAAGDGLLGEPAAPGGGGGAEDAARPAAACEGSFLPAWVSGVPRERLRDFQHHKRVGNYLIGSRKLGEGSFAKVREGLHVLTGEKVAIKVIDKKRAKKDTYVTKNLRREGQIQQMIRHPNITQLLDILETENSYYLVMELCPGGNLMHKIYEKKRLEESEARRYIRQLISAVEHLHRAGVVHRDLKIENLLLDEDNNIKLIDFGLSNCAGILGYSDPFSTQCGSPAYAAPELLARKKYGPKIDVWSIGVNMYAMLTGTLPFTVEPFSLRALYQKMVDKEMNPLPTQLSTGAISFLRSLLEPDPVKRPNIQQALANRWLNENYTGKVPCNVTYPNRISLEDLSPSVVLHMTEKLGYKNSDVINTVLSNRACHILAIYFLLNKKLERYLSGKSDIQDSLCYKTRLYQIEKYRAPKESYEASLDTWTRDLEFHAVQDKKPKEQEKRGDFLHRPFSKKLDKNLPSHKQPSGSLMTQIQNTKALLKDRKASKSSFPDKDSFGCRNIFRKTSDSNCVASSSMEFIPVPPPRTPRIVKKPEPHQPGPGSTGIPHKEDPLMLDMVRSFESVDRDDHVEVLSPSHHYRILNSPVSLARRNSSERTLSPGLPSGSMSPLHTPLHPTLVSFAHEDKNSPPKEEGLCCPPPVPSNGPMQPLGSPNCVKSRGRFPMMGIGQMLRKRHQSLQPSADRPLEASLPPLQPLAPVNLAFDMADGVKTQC", "experiment": "Inhibition of wild-type human partial length HUNK (A31 to K354 residues) expressed in bacterial expression system at 1 uM by Kinomescan method relative to control"}, "[2]": {"biological_target": "Bone morphogenetic protein receptor type-1A (Homo sapiens) (UniProt P36894)", "experiment": "Inhibition of wild-type human partial length BMPR1A (Q214 to I532 residues) expressed in bacterial expression system at 1 uM by Kinomescan method relative to control"}, "[3]": {"biological_target": "Tyrosine-protein kinase FRK (Homo sapiens) (UniProt P42685)", "experiment": "Inhibition of wild-type human partial length FRK (A215 to F503 residues) expressed in bacterial expression system at 1 uM by Kinomescan method relative to control"}, "[4]": {"biological_target": "Phosphatidylinositol 4,5-bisphosphate 3-kinase catalytic subunit delta isoform (Homo sapiens) (UniProt O00329)", "experiment": "Inhibition of wild-type human partial length PIK3CD (R108 to Q1044 residues) expressed in mammalian expression system at 1 uM by Kinomescan method relative to control"}, "[5]": {"experiment": "Kinetic solubility of the compound at pH 1.5 by shake flask assay", "type": "physicochemical", "details": "buffer, read-out: Kinetic_solubility"}, "[6]": {"biological_target": "LIM domain kinase 2 (Homo sapiens) (UniProt P53671)", "experiment": "Inhibition of wild-type human full length LIMK2 (M1 to P638 residues) expressed in bacterial expression system at 1 uM by Kinomescan method relative to control"}, "[7]": {"biological_target": "Ephrin type-A receptor 4 (Homo sapiens) (UniProt P54764)", "experiment": "Inhibition of wild-type human partial length EPHA4 (T601 to R897 residues) expressed in bacterial expression system at 1 uM by Kinomescan method relative to control"}, "[8]": {"biological_target": "Tyrosine-protein kinase receptor TYRO3 (Homo sapiens) (UniProt Q06418)", "experiment": "Inhibition of wild-type human partial length TYRO3 (S497 to T814 residues) expressed in bacterial expression system at 1 uM by Kinomescan method relative to control"}, "[9]": {"biological_target": "Dual specificity protein kinase TTK (Homo sapiens) (UniProt P33981)", "experiment": "Inhibition of wild-type human partial length TTK (N505 to V798 residues) expressed in bacterial expression system at 1 uM by Kinomescan method relative to control"}, "[10]": {"biological_target": "Serine/threonine-protein kinase 32A (Homo sapiens) (UniProt Q8WU08)", "sequence (Q8WU08 whole entry, the tested form may be a part)": "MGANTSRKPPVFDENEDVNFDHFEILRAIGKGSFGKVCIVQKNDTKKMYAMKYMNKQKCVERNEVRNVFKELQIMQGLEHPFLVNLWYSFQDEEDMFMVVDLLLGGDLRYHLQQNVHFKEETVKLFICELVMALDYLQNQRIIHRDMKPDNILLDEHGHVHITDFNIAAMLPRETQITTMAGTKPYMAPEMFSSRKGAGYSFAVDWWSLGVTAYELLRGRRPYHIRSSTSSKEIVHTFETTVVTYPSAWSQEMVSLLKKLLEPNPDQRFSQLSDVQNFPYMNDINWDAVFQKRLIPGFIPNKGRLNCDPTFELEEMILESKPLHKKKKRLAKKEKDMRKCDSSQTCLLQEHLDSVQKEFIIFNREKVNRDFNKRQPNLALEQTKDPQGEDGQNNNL", "experiment": "Inhibition of wild-type human full length YANK1 (M1 to L396 residues) expressed in mammalian expression system at 1 uM by Kinomescan method relative to control"}, "[11]": {"biological_target": "Tyrosine-protein kinase Lck (Homo sapiens) (UniProt P06239)", "experiment": "Inhibition of wild-type human partial length LCK (R207 to P509 residues) expressed in bacterial expression system at 1 uM by Kinomescan method relative to control"}, "[12]": {"biological_target": "Serine/threonine-protein kinase 33 (Homo sapiens) (UniProt Q9BYT3)", "sequence (Q9BYT3 whole entry, looked up, the tested form may be a part)": "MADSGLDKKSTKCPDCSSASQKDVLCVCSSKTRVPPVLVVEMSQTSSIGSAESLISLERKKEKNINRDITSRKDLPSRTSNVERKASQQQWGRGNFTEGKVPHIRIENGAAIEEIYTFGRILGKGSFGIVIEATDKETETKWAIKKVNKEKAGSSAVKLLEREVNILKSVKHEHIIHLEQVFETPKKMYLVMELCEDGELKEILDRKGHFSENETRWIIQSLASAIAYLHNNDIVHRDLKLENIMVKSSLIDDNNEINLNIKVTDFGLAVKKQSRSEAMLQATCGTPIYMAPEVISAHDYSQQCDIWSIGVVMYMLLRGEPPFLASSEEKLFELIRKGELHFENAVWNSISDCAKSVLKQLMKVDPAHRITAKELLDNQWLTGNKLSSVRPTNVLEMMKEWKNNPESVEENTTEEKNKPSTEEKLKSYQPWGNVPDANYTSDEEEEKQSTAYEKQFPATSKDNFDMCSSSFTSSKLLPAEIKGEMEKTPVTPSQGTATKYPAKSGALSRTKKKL", "experiment": "Inhibition of wild-type human full length STK33 (M1 to L514 residues) expressed in bacterial expression system at 1 uM by Kinomescan method relative to control"}, "[13]": {"biological_target": "Cyclin-dependent kinase 15 (Homo sapiens) (UniProt Q96Q40)", "experiment": "Inhibition of wild-type human full length PFTAIRE2 (M1 to W384 residues) expressed in bacterial expression system at 10 uM by Kinomescan method relative to control"}, "[14]": {"biological_target": "Serine/threonine-protein kinase 33 (Homo sapiens) (UniProt Q9BYT3)", "experiment": "Inhibition of wild-type human full length STK33 (M1 to L514 residues) expressed in bacterial expression system at 10 uM by Kinomescan method relative to control"}, "[15]": {"biological_target": "Cytoplasmic tyrosine-protein kinase BMX (Homo sapiens) (UniProt P51813)", "experiment": "Inhibition of wild-type human full length BMX (M1 to H675 residues) expressed in bacterial expression system at 10 uM by Kinomescan method relative to control"}, "[16]": {"biological_target": "Serine/threonine-protein kinase Chk1 (Homo sapiens) (UniProt O14757)", "sequence (O14757 whole entry, the tested form may be a part)": "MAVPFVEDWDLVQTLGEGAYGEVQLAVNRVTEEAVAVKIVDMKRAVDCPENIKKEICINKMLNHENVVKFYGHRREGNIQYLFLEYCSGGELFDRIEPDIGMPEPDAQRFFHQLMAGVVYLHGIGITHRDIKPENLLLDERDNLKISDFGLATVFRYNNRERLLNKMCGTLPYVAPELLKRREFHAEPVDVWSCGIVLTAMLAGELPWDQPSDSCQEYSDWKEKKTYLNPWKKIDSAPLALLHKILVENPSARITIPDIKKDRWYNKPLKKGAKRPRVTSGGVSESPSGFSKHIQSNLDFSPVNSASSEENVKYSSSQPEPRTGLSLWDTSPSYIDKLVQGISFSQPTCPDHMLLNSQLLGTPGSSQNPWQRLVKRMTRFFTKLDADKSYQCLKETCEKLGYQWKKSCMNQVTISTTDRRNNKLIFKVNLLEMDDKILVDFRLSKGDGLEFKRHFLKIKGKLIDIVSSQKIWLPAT", "experiment": "Inhibition of wild-type human partial length CHEK1 (M1 to G289 residues) expressed in bacterial expression system at 10 uM by Kinomescan method relative to control"}, "[17]": {"biological_target": "Ribosomal protein S6 kinase alpha-2 (Homo sapiens) (UniProt Q15349)", "sequence (Q15349 whole entry, the tested form may be a part)": "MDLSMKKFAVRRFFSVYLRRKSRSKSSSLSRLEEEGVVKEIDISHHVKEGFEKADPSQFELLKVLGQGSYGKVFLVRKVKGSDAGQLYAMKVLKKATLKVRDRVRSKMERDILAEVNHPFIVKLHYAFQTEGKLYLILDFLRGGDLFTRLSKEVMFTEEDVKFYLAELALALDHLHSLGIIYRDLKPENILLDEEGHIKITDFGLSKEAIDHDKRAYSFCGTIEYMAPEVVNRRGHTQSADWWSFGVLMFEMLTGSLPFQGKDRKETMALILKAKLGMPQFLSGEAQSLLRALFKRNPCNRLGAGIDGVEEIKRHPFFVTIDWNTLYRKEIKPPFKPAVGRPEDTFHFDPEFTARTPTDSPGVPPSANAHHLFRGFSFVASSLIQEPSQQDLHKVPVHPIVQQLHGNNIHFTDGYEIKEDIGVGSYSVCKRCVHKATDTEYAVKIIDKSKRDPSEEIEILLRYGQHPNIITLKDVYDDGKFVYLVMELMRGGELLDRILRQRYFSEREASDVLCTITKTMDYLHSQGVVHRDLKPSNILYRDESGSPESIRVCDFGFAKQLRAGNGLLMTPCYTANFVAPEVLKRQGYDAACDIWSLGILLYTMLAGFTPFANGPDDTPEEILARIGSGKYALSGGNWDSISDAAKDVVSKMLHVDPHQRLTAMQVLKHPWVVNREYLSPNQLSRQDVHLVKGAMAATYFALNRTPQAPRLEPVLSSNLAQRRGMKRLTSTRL", "experiment": "Inhibition of wild-type human partial length C-terminal RSK3 kinase domain 2 (V403 to K700 residues) expressed in bacterial expression system at 10 uM by Kinomescan method relative to control"}, "[18]": {"biological_target": "Tyrosine-protein kinase JAK3 (Homo sapiens) (UniProt P52333)", "sequence (P52333 whole entry, the tested form may be a part)": "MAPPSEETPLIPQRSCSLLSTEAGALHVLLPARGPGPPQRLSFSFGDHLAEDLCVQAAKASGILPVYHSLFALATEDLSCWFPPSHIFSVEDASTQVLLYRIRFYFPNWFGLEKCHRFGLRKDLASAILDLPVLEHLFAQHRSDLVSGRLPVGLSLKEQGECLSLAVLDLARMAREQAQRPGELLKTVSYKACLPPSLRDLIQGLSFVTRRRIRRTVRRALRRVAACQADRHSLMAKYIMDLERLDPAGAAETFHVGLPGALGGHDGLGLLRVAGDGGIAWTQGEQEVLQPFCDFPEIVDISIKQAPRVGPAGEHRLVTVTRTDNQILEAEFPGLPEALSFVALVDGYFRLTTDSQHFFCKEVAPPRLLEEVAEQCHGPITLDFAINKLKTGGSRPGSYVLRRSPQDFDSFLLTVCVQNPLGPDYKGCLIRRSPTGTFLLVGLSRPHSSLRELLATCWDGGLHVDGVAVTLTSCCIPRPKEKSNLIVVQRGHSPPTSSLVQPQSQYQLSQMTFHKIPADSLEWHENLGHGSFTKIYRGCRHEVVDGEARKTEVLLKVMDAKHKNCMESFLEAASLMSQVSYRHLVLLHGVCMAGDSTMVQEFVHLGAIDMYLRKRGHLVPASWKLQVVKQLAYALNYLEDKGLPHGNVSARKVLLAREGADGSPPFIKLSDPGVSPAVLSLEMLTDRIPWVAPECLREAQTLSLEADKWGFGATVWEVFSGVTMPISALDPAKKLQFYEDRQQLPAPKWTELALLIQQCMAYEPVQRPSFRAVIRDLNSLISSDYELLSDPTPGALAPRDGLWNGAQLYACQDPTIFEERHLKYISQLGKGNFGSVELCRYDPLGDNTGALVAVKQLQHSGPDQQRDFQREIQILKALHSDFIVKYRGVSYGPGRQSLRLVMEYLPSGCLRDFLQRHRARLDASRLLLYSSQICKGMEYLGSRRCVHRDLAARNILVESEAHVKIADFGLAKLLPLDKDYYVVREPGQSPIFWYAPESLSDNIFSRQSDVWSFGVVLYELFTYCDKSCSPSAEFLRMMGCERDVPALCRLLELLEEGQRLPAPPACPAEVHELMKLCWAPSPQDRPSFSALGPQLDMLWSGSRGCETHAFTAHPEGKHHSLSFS", "experiment": "Inhibition of wild-type human partial length JAK3 JH1 catalytic domain (I781 to S1124 residues) expressed in mammalian expression system at 10 uM by Kinomescan method relative to control"}, "[19]": {"biological_target": "MAP kinase-activated protein kinase 2 (Homo sapiens) (UniProt P49137)", "sequence (P49137 whole entry, looked up, the tested form may be a part)": "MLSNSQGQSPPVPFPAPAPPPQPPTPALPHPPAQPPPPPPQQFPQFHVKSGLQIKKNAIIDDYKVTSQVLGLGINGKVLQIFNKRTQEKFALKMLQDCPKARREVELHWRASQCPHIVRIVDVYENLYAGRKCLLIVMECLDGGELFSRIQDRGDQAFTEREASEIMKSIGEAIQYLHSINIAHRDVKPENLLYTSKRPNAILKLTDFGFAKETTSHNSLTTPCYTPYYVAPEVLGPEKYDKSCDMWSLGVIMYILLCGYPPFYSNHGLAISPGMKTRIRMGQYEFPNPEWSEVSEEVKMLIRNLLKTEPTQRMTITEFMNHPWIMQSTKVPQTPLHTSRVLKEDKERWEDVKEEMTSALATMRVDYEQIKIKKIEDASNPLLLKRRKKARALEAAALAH", "experiment": "Inhibition of wild-type human partial length MAPKAPK2 (V48 to D345 residues) expressed in bacterial expression system at 10 uM by Kinomescan method relative to control"}, "[20]": {"biological_target": "Calcium/calmodulin-dependent protein kinase type II subunit beta (Homo sapiens) (UniProt Q13554)", "sequence (Q13554 whole entry, the tested form may be a part)": "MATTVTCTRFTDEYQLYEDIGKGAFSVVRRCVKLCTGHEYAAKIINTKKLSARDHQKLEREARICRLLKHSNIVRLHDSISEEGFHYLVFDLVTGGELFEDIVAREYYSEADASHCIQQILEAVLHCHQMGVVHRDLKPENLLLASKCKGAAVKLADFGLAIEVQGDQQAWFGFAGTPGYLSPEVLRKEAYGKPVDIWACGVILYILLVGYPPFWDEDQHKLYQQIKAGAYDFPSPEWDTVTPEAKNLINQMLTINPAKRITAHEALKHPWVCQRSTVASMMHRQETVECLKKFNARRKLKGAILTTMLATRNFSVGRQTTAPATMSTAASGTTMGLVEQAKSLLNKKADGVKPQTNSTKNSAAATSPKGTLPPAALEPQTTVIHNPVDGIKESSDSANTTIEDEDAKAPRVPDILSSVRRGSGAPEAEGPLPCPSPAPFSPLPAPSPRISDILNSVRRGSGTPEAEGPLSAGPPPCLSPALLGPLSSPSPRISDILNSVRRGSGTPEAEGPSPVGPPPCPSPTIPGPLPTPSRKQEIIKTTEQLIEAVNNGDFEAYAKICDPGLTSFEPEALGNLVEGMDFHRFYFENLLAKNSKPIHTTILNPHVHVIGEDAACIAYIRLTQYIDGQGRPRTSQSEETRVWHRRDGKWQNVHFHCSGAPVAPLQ", "experiment": "Inhibition of wild-type human partial length CAMK2B (M1 to Q380 residues) expressed in bacterial expression system at 10 uM by Kinomescan method relative to control"}, "[21]": {"biological_target": "Fibroblast growth factor receptor 1 (Homo sapiens) (UniProt P11362)", "experiment": "Inhibition of wild-type human partial length FGFR1 (P357 to V669 residues) expressed in bacterial expression system at 10 uM by Kinomescan method relative to control"}, "[22]": {"biological_target": "Cyclin-dependent kinase 9 (Homo sapiens) (UniProt P50750)", "experiment": "Inhibition of wild-type human full length CDK9 (M1 to F372 residues) expressed in bacterial expression system at 10 uM by Kinomescan method relative to control"}, "[23]": {"biological_target": "Serine/threonine-protein kinase MRCK beta (Homo sapiens) (UniProt Q9Y5S2)", "experiment": "Inhibition of wild-type human partial length MRCKB (L56 to S417 residues) expressed in bacterial expression system at 10 uM by Kinomescan method relative to control"}, "[24]": {"biological_target": "Serine/threonine-protein kinase TAO3 (Homo sapiens) (UniProt Q9H2K8)", "experiment": "Inhibition of wild-type human partial length TAOK3 (M1 to T316 residues) expressed in mammalian expression system at 10 uM by Kinomescan method relative to control"}, "[25]": {"biological_target": "Tyrosine-protein kinase ABL2 (Homo sapiens) (UniProt P42684)", "experiment": "Inhibition of wild-type human ABL2 (A248 to G542 residues) expressed in bacterial expression system at 10 uM by Kinomescan method relative to control"}, "[26]": {"system": "Phosphatidylinositol 4,5-bisphosphate 3-kinase catalytic subunit alpha isoform (Homo sapiens), P42336 [I800L]", "experiment": "Inhibition of human partial length PIK3CA I800L mutant (R108 to N1068 residues) expressed in mammalian expression system at 10 uM by Kinomescan method relative to control"}, "[27]": {"biological_target": "Mitogen-activated protein kinase kinase kinase 12 (Homo sapiens) (UniProt Q12852)", "experiment": "Inhibition of wild-type human full length DLK (M1 to P859 residues) expressed in mammalian expression system at 10 uM by Kinomescan method relative to control"}}}
{"molecule": "O=C(Nc1cccc([C@@H]2CN(c3ncnc4[nH]ccc34)CCN2CCO)c1)Nc1c(F)cccc1N1CCCC1", "values": [{"measurement": "inhibition", "setting": "[1]", "value": 100, "unit": "%"}, {"measurement": "inhibition", "setting": "[2]", "value": 100, "unit": "%"}, {"measurement": "inhibition", "setting": "[3]", "value": 99, "unit": "%"}, {"measurement": "inhibition", "setting": "[4]", "value": 100, "unit": "%"}, {"measurement": "solubility kinetic", "setting": "[5]", "value": 94, "unit": "µg/mL"}, {"measurement": "inhibition", "setting": "[6]", "value": 100, "unit": "%"}, {"measurement": "inhibition", "setting": "[7]", "value": 100, "unit": "%"}, {"measurement": "inhibition", "setting": "[8]", "value": 100, "unit": "%"}, {"measurement": "inhibition", "setting": "[9]", "value": 98, "unit": "%"}, {"measurement": "inhibition", "setting": "[10]", "value": 100, "unit": "%"}, {"measurement": "inhibition", "setting": "[11]", "value": 56, "unit": "%"}, {"measurement": "inhibition", "setting": "[12]", "value": 55, "unit": "%"}]}
{"molecule": "O=C(Nc1cccc([C@H]2CCCN(c3ncnc4[nH]ccc34)C2)c1)Nc1ccccc1N1CCCC1", "values": [{"measurement": "inhibition", "setting": "[13]", "value": 93, "unit": "%"}, {"measurement": "inhibition", "setting": "[14]", "value": 100, "unit": "%"}, {"measurement": "inhibition", "setting": "[15]", "value": 43, "unit": "%"}, {"measurement": "inhibition", "setting": "[16]", "value": 100, "unit": "%"}, {"measurement": "inhibition", "setting": "[17]", "value": 66, "unit": "%"}, {"measurement": "inhibition", "setting": "[18]", "value": 0.35, "unit": "%"}, {"measurement": "inhibition", "setting": "[19]", "value": 100, "unit": "%"}, {"measurement": "inhibition", "setting": "[20]", "value": 87, "unit": "%"}, {"measurement": "inhibition", "setting": "[21]", "value": 36, "unit": "%"}, {"measurement": "inhibition", "setting": "[22]", "value": 100, "unit": "%"}, {"measurement": "inhibition", "setting": "[23]", "value": 90, "unit": "%"}, {"measurement": "inhibition", "setting": "[24]", "value": 79, "unit": "%"}, {"measurement": "inhibition", "setting": "[25]", "value": 89, "unit": "%"}, {"measurement": "inhibition", "setting": "[26]", "value": 34, "unit": "%"}, {"measurement": "inhibition", "setting": "[27]", "value": 69, "unit": "%"}]}
